Entries after “also recorded” stand apart in the source; their conditions may differ.
Legend:
SK-N-SH cells [1] = experiment: Cytochrome c oxidase (CcO) activity in Aβ1-42-treated cells; type: cell-based
Experimental: The effect of the CypD inhibitors on cytochrome c oxidase (CcO) was studied. The effect of the CypD inhibitors on Aβ-induced mitochondrial respiratory function was assessed by determining cytochrome c oxidase (CcO) activity. CcO is a vital enzyme associated with the mitochondrial electron transport chain. SK-N-SH cells were treated for 48 hours with 5 μM of oligomer Aβ1-42 in the presence of 10-20 μM of CypD inhibitor C-9, after which samples were tested for CcO enzyme activity levels.

CypD PPIase = CypD PPIase (Homo sapiens, UniProt P30405); experiment: CypD PPIase enzyme activity inhibition (real-time kinetics assay); type: biochemical; settings: for Inhibition of CypD PPIase activity (in words): reaction progress curves, 0.39 to 50 uM (Compound 9: 0.19 to 100 uM), 25° C.
Sequence of CypD PPIase (P30405 30-207): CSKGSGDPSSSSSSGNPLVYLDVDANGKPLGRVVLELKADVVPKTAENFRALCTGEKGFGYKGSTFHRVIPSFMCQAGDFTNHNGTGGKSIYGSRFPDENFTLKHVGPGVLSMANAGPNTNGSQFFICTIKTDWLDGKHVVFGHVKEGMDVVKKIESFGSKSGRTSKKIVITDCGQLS
Experimental: The ability of CypD inhibitors to inhibit CypD PPIase enzyme activity was determined using a previously utilized “standard” procedure (Kofron, J. L.; Kuzmic, P.; Kishore, V.; Colon-Bonilla, E.; Rich, D. H., Determination of kinetic constants for peptidyl prolyl cis-trans isomerases by an improved spectrophotometric assay. Biochemistry 1991, 30, 6127-34). The results are presented in FIGS. 2A-2D and compared to CsA in FIG. 2E.
Linearity was maintained up to 5 minutes of incubation at 25° C. […] Linearity was maintained up to 5 minutes of incubation at 25° C. […] FIG. 10 show reaction progress curves collected for CypD activity in DMSO alone or at various Compound 6C concentrations ranging from 0.39 to 50 uM. Linearity was maintained up to 5 minutes of incubation at 25° C. […] FIG. 11 show reaction progress curves collected for CypD activity in DMSO alone or at various Compound 9 concentrations ranging from 0.19 to 100 uM. Linearity was maintained up to 5 minutes of incubation at 25° C.
Since inhibition of CypD PPIase activity was essential for potentiation of Aβ cytotoxicity, Aβ-induced cytotoxicity can presumably be decreased if the Aβ-CypD interaction is blocked with small-molecule inhibitors like Compound 9.

[2] = Blood brain barrier penetration, LC-MS/MS of CSF, plasma and brain; type: in vivo; settings: mice, 10 mg/kg dose i.v., CSF and brain 4 hours after administration
Experimental: Samples were collected 4 hours after i.v. administration of 10 mg/kg of Compound 6A in mice. […] Samples were collected 4 hours after i.v. administration of 10 mg/kg of Compound 6B in mice. […] Samples were collected 4 hours after i.v. administration of 10 mg/kg of Compound 6C in mice.
Additionally a selective and sensitive method for detecting the presence of four compounds (Compounds 6A, 6B, 6C & 9) as CypD inhibitors in mouse plasma, brain and artificial cerebrospinal fluid is based on high performance liquid chromatography tandem mass spectrometry. Mass spectra were generated using Micromass Quattro Ultima “triple” quadrupole mass spectrometer equipped with Electrospray ionization interface. The method used for pharmacokinetic studies of compounds in mouse cerebrospinal fluid, plasma, and brain is accurate, precise, and specific with no matrix effect.

[3] = molecular target: human recombinant CypD protein (Homo sapiens, UniProt P30405); experiment: Surface plasmon resonance (SPR) binding to immobilized CypD; settings: for Kd: 1:1 Langmuir binding fit, CypD immobilized on CM5 chip, read-out: KD (equilibrium dissociation constant); for Binding to CypD (in words): dose dependent
Sequence of human recombinant CypD protein (P30405 30-207): as above
Experimental: In vitro SPR was used to verify the ability of the CypD inhibitors to bind to human recombinant CypD protein, which correlates with its potential CypD inhibitory activity.
Surface plasmon resonance (SPR) analysis of CypD-Pyrimidine derivative binding interaction, where the globally fit data (black lines) were overlaid with experimental data (greyish lines). Human recombinant CypD protein (10 μg/ml) was immobilized directly on the hydrophilic carboxy methylated dextran matrix of the CM5 sensor chip (Biacore-3000) using the standard primary amine coupling reaction according to standard procedures. Compound 9 (2.5, 5, 10, 15, 20 μM) was injected at a flow rate of 40 μl/min for the determination of the kinetic and equilibrium constants. All data analyses were carried out using BIA evaluation software, and sensor grams were processed by automatic correction for nonspecific bulk refractive index.
The equilibrium dissociation constant (KD) was determined using a 1:1 Langmuir binding fit model and the association (kon) and dissociation (koff) rate constants were determined using Equations (1) and (2). dR/dt=kon×C×(Rmax−R)−koff×R (1)
Where R represents the response unit, C is the concentration of the analyte, and KD=koff/kon (2)
The obtained results were evaluated by χ^2 analysis and the kinetic parameters for Compound 9 are provided.

cortical mitochondria = experiment: Calcium-induced mitochondrial swelling assay; set-up: species or system mice; settings: mouse cortical mitochondria treated with Ca2+, compound added dose-dependently
Text: Mitochondrial swelling in response to calcium was also studied. It is known that CypD-deficient cortical mitochondria are resistant to Aβ- and calcium (Ca^2+)-induced mitochondrial swelling and mitochondrial permeability transition. […] In order to determine the relationship between Ca^2+ and mitochondrial swelling, cortical mitochondria were isolated from mice and subjected to a swelling assay. Mitochondria treated with Ca^2+ experienced excessive swelling.
The fact that brain mitochondrial swelling was not affected by the inhibitors alone implies a symbiotic relationship between Ca^2+ and the inhibitor.

SK-N-SH cells [4] = experiment: Cellular ATP levels in Aβ1-42-treated cells; type: cell-based; settings: 48 hours
Experimental: The effect of the CypD inhibitors on the levels of adenosine-5′-triphosphate (ATP) was studied. To determine the effect of the CypD inhibitors on Aβ-induced energy metabolism impairment, cellular ATP levels were analyzed. SK-N-SH cells were exposed to 5 μM of Aβ1-42 in the presence of 10-20 μM of Compound 9. After 48 hours, we measured the ATP concentrations in the cell lysates.

SK-N-SH cells [5] = experiment: Aβ-induced neuronal cell death, MTT reduction assay; type: cell-based; settings: 10 and 20 μM
Text: Assays examined the effect of the CypD inhibitor compounds on Aβ-induced neuronal cell death, commonly observed in AD. […] The addition of various dosages of inhibitor to the cells in the presence of Aβ1-42 increased cell viability. […] Thus, this evidence provides support that inhibition of CypD with specific inhibitors can provide a beneficial and powerful therapeutic tool in AD treatment.

SK-N-SH cells [6] = experiment: MTT reduction cell viability assay (toxicity of inhibitor alone); type: cell-based; settings: 0, 5, 10, 25, 50, and 100 μM in healthy SK-N-SH cells
Text: The effect of the CypD inhibitors on cell viability was studied. Excellent reversal effects of the CypD inhibitor on Aβ-affected processes were observed, including diminished mitochondrial swelling, and enhanced CcO activity and ATP production, assessment of the overall cell health of SK-N-SH cells treated with the CypD inhibitors were studied. A wide dosing range was utilized to examine the effect of the CypD inhibitors on cell viability using an MTT (3-(4,5-dimethylthiazol-2-yl)-2,5-diphenyltetrazolium_bromide) reduction assay (0, 5, 10, 25, 50, and 100 μM of inhibitor diluted in cell culture medium).

CCOC(=O)C1=C(C)N=C2SC=C(CCc3ccccc3)N2C1c1cccc([N+](=O)[O-])c1 (centres unmarked) [Compound 6A]
Aβ-induced mitochondrial dysfunction (cytochrome c oxidase and ATP levels) (SK-N-SH cells [1]): abolished Aβ-induced mitochondrial dysfunction
Inhibition of CypD PPIase activity (in words) (CypD PPIase): inhibits CypD activity; also recorded: effective in reducing CypD peptidyl prolyl isomerase enzyme activity
Blood-brain barrier penetration [2]: penetrate the blood-brain barrier

CCOC(=O)C1=C(C)N=C2SC=C(CCc3ccccc3)N2C1c1ccc(O)cc1 (centres unmarked) [Compound 6B]
Aβ-induced mitochondrial dysfunction (cytochrome c oxidase and ATP levels) (SK-N-SH cells [1]): abolished Aβ-induced mitochondrial dysfunction
Inhibition of CypD PPIase activity (in words) (CypD PPIase): inhibits CypD activity; also recorded: effective in reducing CypD peptidyl prolyl isomerase enzyme activity
Blood-brain barrier penetration [2]: penetrate the blood-brain barrier
Kd [3]: 248 nM
Binding to CypD (in words) [3]: high binding affinity

CCOC(=O)C1=C(C)N=C2SC=C(CCc3ccccc3)N2C1c1ccc(F)cc1 (centres unmarked) [Compound 6C]
Aβ-induced mitochondrial dysfunction (cytochrome c oxidase and ATP levels) (SK-N-SH cells [1]): abolished Aβ-induced mitochondrial dysfunction
Inhibition of CypD PPIase activity (in words) (CypD PPIase): inhibits CypD activity; also recorded: effective in reducing CypD peptidyl prolyl isomerase enzyme activity
Blood-brain barrier penetration [2]: penetrate the blood-brain barrier

Cc1nc(-c2ccc(OCC(C)C)c(C#N)c2)sc1C(=O)Nc1ccc(S(N)(=O)=O)cc1 [Compound 9]
Aβ-induced mitochondrial dysfunction (cytochrome c oxidase and ATP levels) (SK-N-SH cells [1]): abolished Aβ-induced mitochondrial dysfunction
CcO activity in Aβ-treated cells (SK-N-SH cells [1]; 5 μM oligomer Aβ1-42, 10-20 μM inhibitor, 48 hours): rescued CcO activity
Calcium-induced mitochondrial swelling (cortical mitochondria): swelling was diminished
ATP levels in Aβ-treated cells (SK-N-SH cells [4]; 5 μM Aβ1-42, 10-20 μM compound, cell lysates): rescued ATP concentrations
ATP levels in cells exposed to inhibitor versus vehicle-treated cells without Aβ1-42 (SK-N-SH cells [4]; 10-20 μM compound): comparable to those of vehicle-treated cells
Inhibition of CypD PPIase activity (in words) (CypD PPIase): inhibits CypD activity; also recorded: effective in reducing CypD peptidyl prolyl isomerase enzyme activity
IC50 (CypD PPIase; real time fluorescence monitoring, read-out: IC50 inhibiting PPIase activity of CypD): 1490 ± 200 nM
Blood-brain barrier penetration [2]: penetrate the blood-brain barrier
Cell viability in the presence of Aβ1-42 (MTT reduction) (SK-N-SH cells [5]): significant effect on cell health
Cell viability (MTT reduction), inhibitor alone (SK-N-SH cells [6]): no significant effect
Kd [3]: 149 nM
Binding to CypD (in words) [3]: high binding affinity

From US9738615B2, “Cyclophilin D inhibitors” (The University of Kansas, priority 2014, dated 2017)
